According to PubChem BioAssay AID2060897 (Molecular Pharmacology Branch, DTP, NCI, 2025):
Each block holds one compound with its values, some of them ahead of it.

Test system: 966289-007-R4-J1-PDC complex spheroid viability
Assay: Anticancer human tumor 966289-007-R4-J1-PDC patient-derived pancreatic adenocarcinoma cell line growth inhibition [RAS]
Details: for IC50: curve of first compound; for viability, T/C: stronger effect = lower value
Source text: RAS pathway inhibitors in Combinations in Complex Spheroids
A high-throughput screen of multi-cell type tumor spheroids was designed to identify active combinations of RAS pathway inhibitors and targeted small molecules. Complex spheroids include a stromal component modeled by human endothelial cells (HUVEC) and fibroblasts modeled by human mesenchymal stem cells (MSCs). The concentration ranges selected for each drug and investigational agent were based upon clinically achievable concentrations if the clinical Cmax of the agent was known.
Compounds. The drugs and investigational agents: abemaciclib (NSC768073), cobimetinib (NSC768068), divarasib (GDC6063, NSC841802), docetaxel (NSC628503), GDC-1971 (RLY-1971, NSC841576), gemcitabine (NSC613327), inavolisib (NSC800729), ipatasertib (NSC767898), KB-0742 (NSC834161), MRTX-1133 (NSC836407), osimertinib (NSC779217), RMC-4630 (NSC839698), RMC-6236 (NSC851965), RMC-6291 (NSC852671), Ro-3306 (NSC812927), sapanisertib (NSC764658), SN-38 (NSC673596), staurosporine (NSC755774), SY5609 (NSC837396), and tovorafenib (DAY101, NSC766906), were obtained from the National Cancer Institute (NCI) Developmental Therapeutics Program Chemical Repository. The FDA-approved anticancer drug set is available from the NCI Developmental Therapeutics Program. […] The stock solutions were prepared in dimethyl sulfoxide (DMSO, Sigma-Aldrich, St. Louis, MO, cat. D2650) at 800-fold the tested concentration and stored at -70 degrees C prior to their use. All drugs and investigational agents were tested over a range starting from a high concentration at or near the clinical Cmax and decreasing in half-log increments. If the clinical Cmax for an agent had not been determined, the highest concentration tested was 10 microM.
Cell Culture. All cells were maintained in an incubator at 37 degrees C and 5% CO2 with 95% humidity. The PDC lines were cultured according to standard operating procedures established by the NCI PDMR. All PDCs were thawed and cultured in Matrigel-coated flasks prepared with a working solution of 1X Ham's F-12 nutrient mix, without supplementation (Invitrogen, Waltham, MA, cat. 11765054), 100 U/mL penicillin-streptomycin (Invitrogen, cat. 15140122), and 2.5% Matrigel (Corning Inc., Corning, NY, cat. 354248) for the first three passages. The 362531-283-R-J2-PDC and 782815-120-R-J1-PDC lines were cultured in 6C/Colon 1B media, which includes advanced DMEM/F-12 (Thermo Fisher Scientific, cat. 12634028), 10 mM HEPES (Thermo Fisher Scientific, cat. 15630080), 1X GlutaMAX supplement (Thermo Fisher Scientific, cat. 35050061), 0.1 mg/mL primocin (InvivoGen, San Diego, CA, cat. ant-pm-2), 10% defined fetal bovine serum, heat inactivated (HyClone Laboratories Inc., Logan, UT, cat. SH30070.03HI), 50% L-WRN conditioned media (ATCC, cat. CRL-3276), 1.25 mM N-Acetyl-L-cysteine (Sigma-Aldrich, cat. A9165), 10 mM nicotinamide (Sigma-Aldrich, cat. N0636), 1X B-27 supplement (Thermo Fisher Scientific, cat. 17504044), 1X N-2 supplement (Thermo Fisher Scientific, cat. 17502048), 50 ng/mL human EGF (Thermo Fisher Scientific, cat. PHG0311), and 10 microM Y-27632 dihydrochloride (Tocris Bioscience, cat. 1254). The K12877-001-R-J1-PDC line was cultured in 6I media, which includes all 6C/Colon 1B media plus 10 ng/mL human FGF-10 (PeproTech, cat. 100-26), 1 ng/mL human FGF-2 (PeproTech, cat. 100-18B), 1 µM prostaglandin E2 (Tocris Bioscience, cat. 2296), […] hydrocortisone (Sigma-Aldrich, cat. H4001), and […] bovine insulin (Sigma-Aldrich, cat. I6634). The K86415-001-R-J1-PDC line was cultured in 6D media, which includes all 6C/Colon 1B media components minus the L-WRN conditioned media. The 485176-168-R4-J1-PDC was cultured in PANC media, which includes all 6C/Colon 1B media plus 100 ng/mL human FGF-10 (PeproTech, cat. 100-26), 500 nM SB-431542 (Selleckchem, cat. S1067), and 10 nM gastrin (Tocris Bioscience, cat. 3006). […]

[1] = second compound 0.000949 µM, first compound 0.0316 µM
[2] = second compound 0.000949 µM, first compound 0.1 µM
[3] = second compound 0.000949 µM, first compound 0.316 µM
[4] = second compound 0.000949 µM, first compound 1 µM
[5] = second compound 0.000949 µM, first compound 3.16 µM
[6] = second compound 0.000949 µM, first compound 10 µM
[7] = second compound 0.003 µM, first compound 0.0316 µM
[8] = second compound 0.003 µM, first compound 0.1 µM
[9] = second compound 0.003 µM, first compound 0.316 µM
[10] = second compound 0.003 µM, first compound 1 µM
[11] = second compound 0.003 µM, first compound 3.16 µM
[12] = second compound 0.003 µM, first compound 10 µM
[13] = second compound 0.00949 µM, first compound 0.0316 µM
[14] = second compound 0.00949 µM, first compound 0.1 µM
[15] = second compound 0.00949 µM, first compound 0.316 µM
[16] = second compound 0.00949 µM, first compound 1 µM
[17] = second compound 0.00949 µM, first compound 3.16 µM
[18] = second compound 0.00949 µM, first compound 10 µM
[19] = second compound 0.03 µM, first compound 0.0316 µM
[20] = second compound 0.03 µM, first compound 0.1 µM
[21] = second compound 0.03 µM, first compound 0.316 µM
[22] = second compound 0.03 µM, first compound 1 µM
[23] = second compound 0.03 µM, first compound 3.16 µM
[24] = second compound 0.03 µM, first compound 10 µM
[25] = second compound 0.0949 µM, first compound 0.0316 µM
[26] = second compound 0.0949 µM, first compound 0.1 µM
[27] = second compound 0.0949 µM, first compound 0.316 µM
[28] = second compound 0.0949 µM, first compound 1 µM
[29] = second compound 0.0949 µM, first compound 3.16 µM
[30] = second compound 0.0949 µM, first compound 10 µM
[31] = second compound 0.3 µM, first compound 0.0316 µM
[32] = second compound 0.3 µM, first compound 0.1 µM
[33] = second compound 0.3 µM, first compound 0.316 µM
[34] = second compound 0.3 µM, first compound 1 µM
[35] = second compound 0.3 µM, first compound 3.16 µM
[36] = second compound 0.3 µM, first compound 10 µM
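Also: spheroids exposed to agents for one week before readout.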
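For viability, T/C in this document: percent viability relative to DMSO vehicle control wells as 100%.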

IC50 (second compound 0.000949 µM): > 10000 nM
IC50 (second compound 0.003 µM): > 10000 nM
IC50 (second compound 0.00949 µM): > 10000 nM
IC50 (second compound 0.03 µM): > 10000 nM
IC50 (second compound 0.0949 µM): > 10000 nM
IC50 (second compound 0.3 µM): > 10000 nM
Compound: CC(Nc1ccc2c(c1)OCCn1cc(N3C(=O)OCC3C(F)F)nc1-2)C(N)=O (centres undefined) + CCn1c(-c2cc(N3CCN(C)CC3)cnc2C(C)OC)c2c3cc(ccc31)-c1csc(n1)CC(NC(=O)C1CC1C)C(=O)N1CCCC(N1)C(=O)OCC(C)(C)C2
viability, T/C [1]: 126%
viability, T/C [2]: 124%
viability, T/C [3]: 105%
viability, T/C [4]: 92.2%
viability, T/C [5]: 110%
viability, T/C [6]: 103%
viability, T/C [7]: 115%
viability, T/C [8]: 104%
viability, T/C [9]: 108%
viability, T/C [10]: 83.7%
viability, T/C [11]: 96.8%
viability, T/C [12]: 99.3%
viability, T/C [13]: 123%
viability, T/C [14]: 113%
viability, T/C [15]: 104%
viability, T/C [16]: 96%
viability, T/C [17]: 111%
viability, T/C [18]: 95.2%
viability, T/C [19]: 84.6%
viability, T/C [20]: 97%
viability, T/C [21]: 133%
viability, T/C [22]: 92.2%
viability, T/C [23]: 122%
viability, T/C [24]: 95%
viability, T/C [25]: 91.6%
viability, T/C [26]: 119%
viability, T/C [27]: 104%
viability, T/C [28]: 101%
viability, T/C [29]: 114%
viability, T/C [30]: 88.4%
viability, T/C [31]: 121%
viability, T/C [32]: 108%
viability, T/C [33]: 90.3%
viability, T/C [34]: 94.5%
viability, T/C [35]: 123%
viability, T/C [36]: 92%

IC50 (second compound 0.000949 µM): 126 nM
IC50 (second compound 0.003 µM): 155 nM
IC50 (second compound 0.00949 µM): 155 nM
IC50 (second compound 0.03 µM): 81.7 nM
IC50 (second compound 0.0949 µM): 106 nM
IC50 (second compound 0.3 µM): 107 nM
Compound: CC1(O)CCCC1n1c(=O)c(C(F)F)cc2cnc(NC3CCN(S(C)(=O)=O)CC3)nc21 (centres undefined) + CCn1c(-c2cccnc2C(C)OC)c2c3cc(ccc31)N1CCOC(CC(NC(=O)C(C(C)C)N(C)C(=O)C3(F)CCN(C(=O)C#CC(C)(C)N(C)C)CC3)C(=O)N3CCCC(N3)C(=O)OCC(C)(C)C2)C1
viability, T/C [1]: 102%
viability, T/C [2]: 57.9%
viability, T/C [3]: 21.9%
viability, T/C [4]: 24.9%
viability, T/C [5]: 20.7%
viability, T/C [6]: 3.78%
viability, T/C [7]: 115%
viability, T/C [8]: 67.3%
viability, T/C [9]: 21.2%
viability, T/C [10]: 22.8%
viability, T/C [11]: 23.8%
viability, T/C [12]: 4.11%
viability, T/C [13]: 83.1%
viability, T/C [14]: 68.5%
viability, T/C [15]: 19.7%
viability, T/C [16]: 18.9%
viability, T/C [17]: 23.4%
viability, T/C [18]: 2.04%
viability, T/C [19]: 91.6%
viability, T/C [20]: 41.3%
viability, T/C [21]: 18.8%
viability, T/C [22]: 21.4%
viability, T/C [23]: 24.4%
viability, T/C [24]: 1.8%
viability, T/C [25]: 99.3%
viability, T/C [26]: 51.8%
viability, T/C [27]: 16.9%
viability, T/C [28]: 21.4%
viability, T/C [29]: 26%
viability, T/C [30]: 1.18%
viability, T/C [31]: 64.1%
viability, T/C [32]: 52.2%
viability, T/C [33]: 16%
viability, T/C [34]: 23.2%
viability, T/C [35]: 24.1%
viability, T/C [36]: 1.49%
